Source: PubChem BioAssay (NCI)
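Briefly, cells in 96-well plates were exposed to five compound concentrations for 48 h, and endpoints were estimated by linear interpolation. TGI marks complete inhibition of growth.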

Tests used:
Test in all cases: NCI anticancer screen, dose series, 48 h
NCI-H460 lung = tested on: NCI-H460 lung
SK-OV-3 ovarian = tested on: SK-OV-3 ovarian
786-0 renal = tested on: 786-0 renal
LOX IMVI melanoma = tested on: LOX IMVI melanoma
M14 melanoma = tested on: M14 melanoma
RXF-631 renal = tested on: RXF-631 renal
DMS 273 small cell lung = tested on: DMS 273 small cell lung
OVCAR-5 ovarian = tested on: OVCAR-5 ovarian
TK-10 renal = tested on: TK-10 renal
LXFL 529 NSCLC = tested on: LXFL 529 NSCLC
UACC-62 melanoma = tested on: UACC-62 melanoma
SF-295 CNS = tested on: SF-295 CNS
SK-MEL-5 melanoma = tested on: SK-MEL-5 melanoma
A549 NSCLC = tested on: A549 NSCLC
RPMI-8226 leukemia = tested on: RPMI-8226 leukemia
CCRF-CEM leukemia = tested on: CCRF-CEM leukemia
DMS 114 small cell lung = tested on: DMS 114 small cell lung
MALME-3M melanoma = tested on: MALME-3M melanoma
SF-539 CNS = tested on: SF-539 CNS
SF-268 CNS = tested on: SF-268 CNS
CAKI-1 renal = tested on: CAKI-1 renal
SR leukemia = tested on: SR leukemia
NCI-H23 lung = tested on: NCI-H23 lung
SNB-19 CNS = tested on: SNB-19 CNS
KM20L2 colon = tested on: KM20L2 colon
HCC-2998 colon = tested on: HCC-2998 colon
NCI-H522 lung = tested on: NCI-H522 lung
IGROV1 ovarian = tested on: IGROV1 ovarian
UACC-257 melanoma = tested on: UACC-257 melanoma
OVCAR-3 ovarian = tested on: OVCAR-3 ovarian
SK-MEL-28 melanoma = tested on: SK-MEL-28 melanoma
ACHN renal = tested on: ACHN renal
HCT-116 colon = tested on: HCT-116 colon
A498 renal = tested on: A498 renal
XF 498 CNS = tested on: XF 498 CNS
NCI-H226 lung = tested on: NCI-H226 lung
OVCAR-4 ovarian = tested on: OVCAR-4 ovarian
SNB-75 CNS = tested on: SNB-75 CNS
HOP-18 NSCLC = tested on: HOP-18 NSCLC
HT29 colon = tested on: HT29 colon
HOP-62 NSCLC = tested on: HOP-62 NSCLC
SW-620 colon = tested on: SW-620 colon
SNB-78 CNS = tested on: SNB-78 CNS
U251 CNS = tested on: U251 CNS
SN12C renal = tested on: SN12C renal
KM12 colon = tested on: KM12 colon
OVCAR-8 ovarian = tested on: OVCAR-8 ovarian
COLO 205 colon = tested on: COLO 205 colon
DLD-1 colon = tested on: DLD-1 colon
MOLT-4 leukemia = tested on: MOLT-4 leukemia
HOP-92 NSCLC = tested on: HOP-92 NSCLC
M19-MEL melanoma = tested on: M19-MEL melanoma
UO-31 renal = tested on: UO-31 renal
EKVX NSCLC = tested on: EKVX NSCLC
K-562 leukemia = tested on: K-562 leukemia
SK-MEL-2 melanoma = tested on: SK-MEL-2 melanoma
RXF 393 renal = tested on: RXF 393 renal
HCT-15 colon = tested on: HCT-15 colon
HL-60(TB) leukemia = tested on: HL-60(TB) leukemia

Compound: Cn1cnc([N+](=O)[O-])c1Sc1nccn1-c1cccc2ccccc12
- TGI (NCI-H460 lung): 73.1 µM
- TGI (SK-OV-3 ovarian): > 100 µM
- TGI (786-0 renal): > 100 µM
- TGI (LOX IMVI melanoma): 32.4 µM
- TGI (M14 melanoma): 61 µM
- TGI (RXF-631 renal): 84.2 µM
- TGI (DMS 273 small cell lung): 79.8 µM
- TGI (OVCAR-5 ovarian): 76.1 µM
- TGI (TK-10 renal): > 100 µM
- TGI (LXFL 529 NSCLC): 99.4 µM
- TGI (UACC-62 melanoma): 33.9 µM
- TGI (SF-295 CNS): > 100 µM
- TGI (SK-MEL-5 melanoma): > 100 µM
- TGI (A549 NSCLC): > 100 µM
- TGI (RPMI-8226 leukemia): 49.9 µM
- TGI (CCRF-CEM leukemia): 68.5 µM
- TGI (DMS 114 small cell lung): 62 µM
- TGI (MALME-3M melanoma): 42.2 µM
- TGI (SF-539 CNS): 90.2 µM
- TGI (SF-268 CNS): 84.2 µM
- TGI (CAKI-1 renal): > 100 µM
- TGI (SR leukemia): 50.5 µM
- TGI (NCI-H23 lung): 50.6 µM
- TGI (SNB-19 CNS): > 100 µM
- TGI (KM20L2 colon): > 100 µM
- TGI (HCC-2998 colon): > 100 µM
- TGI (NCI-H522 lung): 22.4 µM
- TGI (IGROV1 ovarian): > 100 µM
- TGI (UACC-257 melanoma): > 100 µM
- TGI (OVCAR-3 ovarian): 75.2 µM
- TGI (SK-MEL-28 melanoma): 67.8 µM
- TGI (ACHN renal): 94.2 µM
- TGI (HCT-116 colon): 60.3 µM
- TGI (A498 renal): > 100 µM
- TGI (XF 498 CNS): 58.9 µM
- TGI (NCI-H226 lung): 59.6 µM
- TGI (OVCAR-4 ovarian): 95.3 µM
- TGI (SNB-75 CNS): 87.5 µM
- TGI (HOP-18 NSCLC): 8.89 µM
- TGI (HT29 colon): 88.1 µM
- TGI (HOP-62 NSCLC): > 100 µM
- TGI (SW-620 colon): > 100 µM
- TGI (SNB-78 CNS): 77.9 µM
- TGI (U251 CNS): > 100 µM
- TGI (SN12C renal): > 100 µM
- TGI (KM12 colon): > 100 µM
- TGI (OVCAR-8 ovarian): 58.8 µM
- TGI (COLO 205 colon): 30.3 µM
- TGI (DLD-1 colon): 98.5 µM
- TGI (MOLT-4 leukemia): 43.7 µM
- TGI (HOP-92 NSCLC): 54.9 µM
- TGI (M19-MEL melanoma): 98.9 µM
- TGI (UO-31 renal): > 100 µM
- TGI (EKVX NSCLC): 92.4 µM
- TGI (K-562 leukemia): > 100 µM
- TGI (SK-MEL-2 melanoma): 37.5 µM

Compound: CC1=C(O)C(=O)C2C(=O)C1C1Cc3ccccc3C21 (stereo not drawn)
- TGI (RXF 393 renal): > 100 µM
- TGI (SK-OV-3 ovarian): > 100 µM
- TGI (786-0 renal): > 100 µM
- TGI (LOX IMVI melanoma): > 100 µM
- TGI (M14 melanoma): > 100 µM
- TGI (RXF-631 renal): > 100 µM
- TGI (DMS 273 small cell lung): > 100 µM
- TGI (OVCAR-5 ovarian): > 100 µM
- TGI (TK-10 renal): > 100 µM
- TGI (LXFL 529 NSCLC): > 100 µM
- TGI (UACC-62 melanoma): > 100 µM
- TGI (SF-295 CNS): > 100 µM
- TGI (SK-MEL-5 melanoma): > 100 µM
- TGI (A549 NSCLC): > 100 µM
- TGI (RPMI-8226 leukemia): > 100 µM
- TGI (CCRF-CEM leukemia): > 100 µM
- TGI (MALME-3M melanoma): > 100 µM
- TGI (SF-539 CNS): > 100 µM
- TGI (SF-268 CNS): > 100 µM
- TGI (CAKI-1 renal): > 100 µM
- TGI (SR leukemia): > 100 µM
- TGI (NCI-H23 lung): > 100 µM
- TGI (SNB-19 CNS): > 100 µM
- TGI (HCC-2998 colon): > 100 µM
- TGI (NCI-H522 lung): > 100 µM
- TGI (IGROV1 ovarian): > 100 µM
- TGI (OVCAR-3 ovarian): > 100 µM
- TGI (SK-MEL-28 melanoma): > 100 µM
- TGI (ACHN renal): > 100 µM
- TGI (A498 renal): > 100 µM
- TGI (XF 498 CNS): > 100 µM
- TGI (NCI-H226 lung): > 100 µM
- TGI (OVCAR-4 ovarian): > 100 µM
- TGI (SNB-75 CNS): > 100 µM
- TGI (HT29 colon): > 100 µM
- TGI (HOP-62 NSCLC): > 100 µM
- TGI (SW-620 colon): > 100 µM
- TGI (SNB-78 CNS): > 100 µM
- TGI (U251 CNS): > 100 µM
- TGI (KM12 colon): > 100 µM
- TGI (OVCAR-8 ovarian): > 100 µM
- TGI (COLO 205 colon): > 100 µM
- TGI (DLD-1 colon): > 100 µM
- TGI (MOLT-4 leukemia): > 100 µM
- TGI (HOP-92 NSCLC): > 100 µM
- TGI (M19-MEL melanoma): > 100 µM
- TGI (HCT-15 colon): > 100 µM
- TGI (UO-31 renal): > 100 µM
- TGI (EKVX NSCLC): > 100 µM
- TGI (K-562 leukemia): > 100 µM
- TGI (HL-60(TB) leukemia): > 100 µM
- TGI (SK-MEL-2 melanoma): > 100 µM
